From ChEMBL document CHEMBL1135376, “Synthesis of an immunoconjugate of camptothecin” (Bioorg Med Chem Lett, 2002)

Legend:
[1] = Compound was evaluated for its stability and enzymatic cleavage of dipeptide linker at pH5, 37 degree C.; 5-6 h; format: ADME; conditions: pH 5
[2] = Compound was evaluated for its stability and enzymatic cleavage of dipeptide linker at pH 7, 37 degree C.; 5-6 h; format: ADME
[3] = Compound was evaluated for its stability and enzymatic cleavage of dipeptide linker at pH5, 37 degree C.; format: ADME; conditions: pH 5
[4] = test system: L2987; experiment: Compound was evaluated for antigen specific activity in vitro L2987 cell line; format: functional, cell-based; conditions: Homo sapiens

SMILES	half-life [1]	half-life [2]	half-life [3]	IC50 [4]
CC[C@]1(OC(=O)OCc2ccc(NC(=O)[C@H](CCCCN)NC(=O)[C@H](Cc3ccccc3)NC(=O)CCCCCN3C(=O)CC(SCCO)C3=O)cc2)C(=O)OCc2c1cc1n(c2=O)Cc2cc3ccccc3nc2-1 (some centres undefined)	6 h	6 h	< 2 min	–
CC[C@@]1(O)C(=O)OCc2c1cc1n(c2=O)Cc2cc3ccccc3nc2-1 [CAMPTOTHECIN]	–	–	–	400 nM
